The text below walks through data of paper PMC9501633, “Synthesis, Characterisation and Mechanism of Action of Anticancer 3-Fluoroazetidin-2-ones” (Pharmaceuticals, 2022).

Broadly, the amount remaining is what is left of the initial amount, in per cent. Read a high amount remaining as greater stability.

The subject of one data set is Bax. Put plainly: Western blot of apoptosis regulatory proteins in MCF-7 cells. It counts as cell-based, human. The following applies: MCF-7, 0.05, 0.1 and 0.5 μM, 48 and 72 h, dose-dependent. The procedure:
(§1) The selective Bcl-2 inhibitor venetoclax was developed as a BH3-mimetic that binds to the pro-survival protein Bcl-2 and inhibits its ability to bind Bax or Bak. Venetoclax has been approved for clinical use in the treatment of chronic lymphocytic leukaemia (CLL). Compound 33 induced downregulation of Bcl-2 expression with corresponding upregulation of Bax at 48 h in a dose-dependent manner. This effect was further increased at 72 h.
(§2) Western blot analysis was performed according to the protocols we previously described. MCF-7 cells were seeded at a density of 1 × 10^5 cells/flask in T25 flasks. After 48 h, whole cell lysates were prepared from untreated cells or cells treated with vehicle control (EtOH, 0.1% v/v) or cells treated with compound 33 (0.05 μM, 0.1 μM and 0.5 μM). MCF-7 cells were harvested in RIPA buffer which was supplemented with protease inhibitors (Roche Diagnostics, Rotkreuz, Switzerland), phosphatase inhibitor cocktail 2 (Sigma-Aldrich, Arklow, Ireland) and phosphatase inhibitor cocktail 3 (Sigma-Aldrich, Arklow, Ireland). Equal amounts of protein (as determined by a BCA assay) were resolved by SDS-PAGE (12%) followed by transfer to PVDF membranes. […] Proteins were detected using enhanced chemiluminescent Western blot detection (Clarity Western ECL substrate) (Bio-Rad) on the ChemiDoc MP System (Bio-Rad). […]
In general terms: In western blotting, separated proteins are transferred to a membrane and probed.

The test system of another data set is Bcl-2. The description is as above. It counts as cell-based, human. To be noted: MCF-7, 0.05, 0.1 and 0.5 μM, 48 and 72 h, dose-dependent. The protocol:
as §1, §2

A short description of data set [1]: Stability in phosphate buffers (HPLC). It counts as physicochemical. The protocol: The β-lactam ring is known to undergo hydrolysis/degradation depending on the substituent type on the ring. For example, degradation of monocyclic β-lactam antibiotic aztreonam increased with elevated humidity, temperature and acidic pH buffer. Ezetimibe, a monocyclic β-lactam drug used to reduce blood cholesterol, undergoes degradation and hydrolysis more rapidly in neutral and basic pH conditions than in acidic pH [71]. The stability of representative compounds 33 and 39 was also determined at pH 4, pH 7.4 (plasma) and pH 9 (intestine) by HPLC. […] The electron-withdrawing effect of the 3-fluoro substituent may result in decreasing stability of the β-lactam ring in response to acid hydrolysis.
The stability study for compounds 33 and 39 was performed using analytical HPLC (Symmetry column (C18, […], 4.6 × 150 mm), dual wavelength absorbance detector (Waters 2487), binary HPLC pump (Waters 1525) and autosampler (Waters 717 plus)) with mobile phase acetonitrile (70%)/water (30%), flow rate 1 mL/min over 15 min and detection at λ 254 nm. Stock solutions of compounds 33 and 39 (1 mg/mL in mobile phase) were used. Dilutions of 0.5 mg/mL, 0.25 mg/mL, 0.125 mg/mL, 0.0625 mg/mL, 0.03125 mg/mL, 0.015625 mg/mL and 0.0078 mg/mL were prepared for the calibration curve. (i) Stability of 33 and 39 in phosphate buffers: The phosphate buffers were prepared in accordance with the British Pharmacopoeia 2020 at pH values 4, 7.4 and 9. Stock solution, 300 µL (1 mg/mL ACN), was added to a vial containing buffer (9.7 mL), mixed and pre-heated to 37 °C. 1 mL of the solution was introduced into an HPLC vial. Samples (10 µL) were injected and analysed at time intervals of t = 0 min, 5 min, 30 min, 60 min and hourly for 24 h. The analysis was performed in triplicate. (ii) Thermal stability: Compounds 33 and 39 (1 mL stock solution) were each placed in a vial for 4 h at 60 °C on a heating block. The sample was then cooled, diluted with acetonitrile and analysed by HPLC. (iii) Photostability study: Compounds 33 and 39 (stock solution, 1 mL) were placed in a vial, exposed to UV light for 4 h and then analysed by HPLC. (iv) Stability in acidic conditions: HCl (0.1 M, 0.2 mL) was added to stock solutions (0.8 mL) of 33 and 39 in a vial. The vial was vortexed and retained at room temperature. A sample was neutralised with NaOH (0.1 M, 0.2 mL) each hour for 4 h and then analysed by HPLC. (v) Stability of 33 and 39 in basic (alkaline) conditions: NaOH (0.1 M, 0.2 mL) was added to stock solution (0.8 mL) in a vial. The vial was vortexed and retained at room temperature. A sample was neutralised with HCl (0.1 M, 0.2 mL) every hour for 4 h then analysed by HPLC. (vi) Stability of 33 and 39 in oxidising conditions: H2O2 (3%, 0.2 mL) was added to the stock solution (0.8 mL). The vial was vortexed to obtain a homogeneous mixture and retained at room temperature, and a sample was analysed by HPLC every hour for 4 h.

As to `COc1ccc(C2C(F)C(=O)N2c2cc(OC)c(OC)c(OC)c2)cc1F` (stereo not drawn) [Compound 33, 3-Fluoro-4-(3-fluoro-4-methoxyphenyl)-1-(3,4,5-trimethoxyphenyl)azetidin-2-one], the Bax expression result with Bax was “upregulation”. For the same molecule, the Bcl-2 expression entry in the data set on Bcl-2 is reported as “downregulation”. Besides, the amount remaining at 24 h, 0.03 mg/mL in data set [1] (phosphate buffer pH 4, 37 °C) was 76%; in data set [1] (phosphate buffer pH 7.4, 37 °C), 87%; in data set [1] (phosphate buffer pH 9, 37 °C), 26%. In data set [1] (phosphate buffer, pH 11 (as printed in Table S7)), this molecule had a fraction remaining at 0.03 mg/mL of 26%.
